The molecules below were run on Rat Paw Edema (assay: Rat paw edema assay (carrageenan-induced)). Conditions: dose of prodrug, po, required to reduce edema formation by 50% as compared to the vehicle control.
Type: in vivo, Male Sprague-Dawley rats
Protocol: Male Sprague-Dawley rats (150-200 g) are fasted overnight and are given, po, either vehicle (1% methocel or 5% Tween 80) or a test compound. One hr later, a line is drawn using a permanent marker at the level above the ankle in one hind paw to define the area of the paw to be monitored. The paw volume (V0) is measured using a plethysmometer (Ugo-Basile, Italy) based on the principle of water displacement. The animals are then injected subplantarly with 50 µl of 1% carrageenan solution in saline (FMC Corp, Maine) into the paw using an insulin syringe with a 25-gauge needle (i.e. 500 µg carrageenan per paw). Three hr later, the paw volume (V3) is measured and the increases in paw volume (V3 - VO) are calculated. The animals are sacrificed by CO2 asphyxiation and the absence or presence of stomach lesions scored. Data is compared with the vehicle-control values and percent inhibition calculated. All treatment groups are coded to eliminate observer bias.
Compounds of the present invention are prodrugs of inhibitors of COX-2 and are thereby useful in the treatment of COX-2 mediated diseases as enumerated above. The extent of conversion of these compounds to the active COX-2 inhibitors may be seen in the representative results shown below along with their antiinflammatory activity. The plasma levels indicated are the maximum rat plasma concentrations of the active COX-2 inhibitor observed when the rat was treated with a 20 mg/kg oral dose of the indicated prodrug. The ED50 values in the rat paw edema assay represent the dose of prodrug required to reduce edema formation by 50% as compared to the vehicle control.

**Q.** For CC1(C)OC(O)C(c2cccc(F)c2)=C1c1ccc(S(C)(=O)=O)cc1 (centres unmarked) [Example 1, 5,5-Dimethyl-3-(3-fluorophenyl)-2-hydroxy-4-(4-methylsulfonylphenyl)-2.5-dihydrofuran], which ED50 is on record?
**A.** 2.5 mg/kg

**Q.** How did the ED50 turn out when CC1(C)OC(O)C(c2cc(F)cc(F)c2)=C1c1ccc(S(C)(=O)=O)cc1 (centres unmarked) [Example 2, 3-(3,5-Difluorophenyl)-5,5-dimethyl-2-hydroxy-4-(4-(methylsulfonyl)phenyl)-2,5-dihydrofuran] was run?
**A.** 0.7 mg/kg

**Q.** How did the ED50 turn out when CC1(C)OC(O)C(Oc2cccc(F)c2)=C1c1ccc(S(C)(=O)=O)cc1 (centres unmarked) [Example 9, 5.5-Dimethyl-3-(3-fluorophenoxy)-2-hydroxy-4-(4-(methylsulfonyl)phenyl)-2,5-dihydrofuran] was run?
**A.** 1.7 mg/kg

**Q.** How did the ED50 turn out when CC1(C)OC(O)C(Oc2ccc(F)c(F)c2)=C1c1ccc(S(C)(=O)=O)cc1 (centres unmarked) [Example 10, 5.5-Dimethyl-3-(3,4-difluorophenoxy)-2-hydroxy-4-(4-(methylsulfonyl)phenyl)-2.5-dihydrofuran] was run?
**A.** 0.09 mg/kg

**Q.** CS(=O)(=O)c1ccc(C2=C(c3ccccc3)C(O)CC2)cc1 (centres unmarked) [Example 13, 3-(4-(Methylsulfonyl)phenyl)-2-phenyl-2-cyclopenten-1-ol] was tested. Which ED50 did it give?
**A.** 0.9 mg/kg

**Q.** Which ED50 does the source give for CC(C)OC1=C(c2ccc(S(C)(=O)=O)cc2)C(C)(C)OC1O (centres unmarked) [Example 39, 3-Isopropoxy-5,5-dimethyl-4-(4-methylsulfonylphenyl)-2,5-dihydrofuran-2-ol] here?
**A.** 2.7 mg/kg

**Q.** For CS(=O)(=O)c1ccc(C2=C(c3cccnc3)C(O)CC2)cc1 (centres unmarked) [Example 40, 3-(4-Methylsulfonylphenyl)-2-(3-pyridinyl)-2-cyclopenten-1-ol], which ED50 is on record?
**A.** 1.5 mg/kg

**Q.** Which ED50 does the source give for CC(OC1=C(c2ccc(S(C)(=O)=O)cc2)C(C)(C)OC1O)C1CC1 (centres unmarked) [Example 44, 3-(1-Cyclopropylethoxy)-5,5-dimethyl-4-(4-methylsulfonylphenyl)-2,5-dihydrofuran-2-ol] here?
**A.** 1.6 mg/kg

From EP0904269B1, “3,4-DIARYL-2-HYDROXY-2,5-DIHYDROFURANS AS PRODRUGS TO COX-2 INHIBITORS” (Merck Frosst Canada & Co., priority 1995, dated 1997)
